Assay [1] has as its system EBC-1 (lung squamous cell carcinoma). Kind of assay: In vitro cytotoxicity (cell growth inhibition, CellTiter-Glo). The class given is cell-based. Here is the method:
(§1) The cell growth inhibition (cytotoxicity) capabilities of anti-cMet ADCs comprising variant v17427 (HetFc, unmodified hinge) conjugated to Drug-Linker 001 or MCvcPABC-MMAE by stochastic cysteine conjugation at an average DAR 4 were determined in a panel of four cMet-expressing cell lines as described below. The cell lines were EBC-1 (lung squamous cell carcinoma), H292 (lung carcinoma), BT-20 (breast cancer) and SW48 (colorectal cancer).
(§2) Briefly, cells were seeded in 384-well plates at 1,000-1,500 cells/well density and treated with a titration of test article, generated in complete cell growth medium. Treated cells were incubated for 4-5 days under standard culturing conditions (37° C./5% CO2). After incubation, CellTiter-Glo® reagent (Promega Corporation, Madison, WI; Cat. No. G7570) was spiked into each well and luminescence corresponding to ATP present in each well was measured using a Synergy™ H1 microplate (BioTek Instruments, Winooski, VT). Based on blank wells (no test article added, only blank media), % cytotoxicity values were calculated using ATP measurement RLU values (Relative Light Units) and plotted against test article concentration using GraphPad Prism 8 software (GraphPad Software, San Diego, CA).
(§3) Cytotoxicity was determined as described in Example 6 with treated cells (1,000 cells/well) being incubated for 4 days under standard culturing conditions (37° C./5% CO2).
(§4) The cell growth inhibition capabilities of ADCs comprising anti-cMet antibodies with either a HomoFc or HetFc backbone (v32634 and v17427, respectively) conjugated to Drug-Linker 002 by stochastic lysine conjugation at approximately DAR 4 and DAR 6 were assessed in a panel of four cMet-expressing tumour cell lines and one cMet-negative cell line. The anti-RSV antibody, palivizumab (v22277), conjugated to Drug-Linker 002 at DAR 3.7, and free payload (Compound 1), were used as controls. Cytotoxicity was determined as described in Example 8. Cell lines were SNU-5 (gastric carcinoma), EBC-1 (lung squamous cell carcinoma), H1975 (non-small cell lung cancer), H292 (lung carcinoma) and cMet-negative T-47D (breast cancer).
(§5) The cell growth inhibition capabilities of site-specific cysteine-conjugated ADCs comprising various cysteine insertion antibody variants conjugated to Drug-Linker 001 at approximately DAR 1, 2 or 3, were assessed in a panel of four cMet-expressing tumour cell lines, SNU-5 (gastric carcinoma), EBC-1 (lung squamous cell carcinoma), H292 (lung carcinoma) and H1975 (non-small cell lung cancer), and one cMet-negative cell line, T-47D (breast carcinoma). An ADC comprising the anti-RSV antibody palivizumab (v22277) conjugated to Drug-Linker 001 at approximately DAR 4 was used as a non-targeted control. […] Cytotoxicity was determined as described in Example 7.
(§6) The cell growth inhibition capabilities of ADCs comprising variant v29001, having two cysteine insertions, conjugated to multivalent Drug-Linker 003 or multivalent Drug-Linker 004, were assessed in a panel of cMet-expressing tumour cell lines together with ADCs comprising parental variant v17427 conjugated to the monovalent Drug-Linker 002 at DAR 4 or DAR 6. Cell lines used were SNU-5 (gastric carcinoma), EBC-1 (lung squamous cell carcinoma), H292 (lung carcinoma), H1975 (non-small cell lung cancer) and T-47D (breast carcinoma, cMet-negative). ADCs comprising the anti-RSV antibody palivizumab (v22277) conjugated to Drug-Linker 002 were used as non-targeted controls. Free payload Compound 1 was also included as a control. Cytotoxicity was determined as described in Example 8.

The next assay deals with H292 (lung carcinoma). Described as above. The class given is cell-based. Here is the method: as §1, §2, §3, §4, §5, §6
The test system of assay [2] is cMet-negative T-47D (breast cancer). The assay is described as above. The class given is cell-based. As to conditions: Homo sapiens, T47D, 96 h. How it is done:
as §2, §3
The cell growth inhibition capabilities of ADCs comprising anti-cMet antibodies with either a HomoFc or HetFc backbone (v32634 and v17427, respectively) conjugated to Drug-Linker 002 by stochastic lysine conjugation at approximately DAR 4 and DAR 6 were assessed in a panel of four cMet-expressing tumour cell lines and one cMet-negative cell line. […] Cytotoxicity was determined as described in Example 8. […]

Assay [3] deals with SNU-5 (gastric carcinoma). The assay is described as above. It counts as cell-based. As to conditions: 4 days. Here is the method:
as §2
(§7) The cell growth inhibition capabilities of anti-cMet ADCs comprising variant v17427 (HetFc, unmodified hinge) conjugated to Drug-Linker 002 by stochastic lysine conjugation at DARs ranging from DAR 2 to DAR 6 were determined in a panel of seven cMet-expressing cell lines. Variant v17427 conjugated to MCvcPABC-MMAE drug linker at DAR 4, and anti-RSV antibody, palivizumab (v22277), conjugated to Drug-Linker 002 or MCvcPABC-MMAE at DAR 4, were used as controls. Cell lines were SNU-5 (gastric carcinoma), EBC-1 (lung squamous cell carcinoma), HCC827 (lung cancer), H1975 (non-small cell lung cancer), HCT-116 (colorectal cancer), H292 (lung carcinoma) and BT-20 (breast cancer).
as §3, §4, §6

The test system of assay [4] is H1975 (non-small cell lung cancer). Described as above. The class given is cell-based. How it is done: as §2, §7, §3, §4, §6
In a further assay the test system is BT-20 (breast cancer). Described as above. It counts as cell-based. How it is done:
as §1
as §2, with “CA). […]” for “CA).”
as §3

For another assay, the system named is SW48 (colorectal cancer). The assay is described as above. Conditions: Homo sapiens, 4-5 days, Table 6.1, read-out: EC50 (nM) - DAR corrected. It counts as cell-based. Here is the method:
as §1, §2

The next assay relates to HCC827 (lung cancer). Described as above. It counts as cell-based. Conditions: 4 days, Table 8.1. Here is the method: as §2
(§8) The cell growth inhibition capabilities of anti-cMet ADCs comprising variant v17427 (HetFc, unmodified hinge) conjugated to Drug-Linker 002 by stochastic lysine conjugation at DARs ranging from DAR 2 to DAR 6 were determined in a panel of seven cMet-expressing cell lines. […]
as §3

For assay [5], the system named is HCT-116 (colorectal cancer). Described as above. It counts as cell-based. Conditions: 4 days, Table 8.1. Here is the method: as §2, §8, §3
Assay [6] has as its system cMet-positive non-small cell lung carcinoma (NSCLC). As to conditions: Phase II trials; cited from earlier work.
For a further assay, the system named is HT-29. Kind of assay: Receptor-mediated internalization, high content imaging. The class given is cell-based. Conditions: 5 Hours 37° C.
The next assay deals with EBC-1. Described as above. The class given is cell-based. As to conditions: 5 Hours 37° C.
In assay [7] the target is T1, cMet on SNU-5 endogenous cMet-expressing cell line (Homo sapiens, UniProt P08581).
T1 construct: SNU-5 and H292 endogenous cMet-expressing cell lines; endogenous in cells; host or cells: SNU-5
T1 sequence (P08581 25-1390): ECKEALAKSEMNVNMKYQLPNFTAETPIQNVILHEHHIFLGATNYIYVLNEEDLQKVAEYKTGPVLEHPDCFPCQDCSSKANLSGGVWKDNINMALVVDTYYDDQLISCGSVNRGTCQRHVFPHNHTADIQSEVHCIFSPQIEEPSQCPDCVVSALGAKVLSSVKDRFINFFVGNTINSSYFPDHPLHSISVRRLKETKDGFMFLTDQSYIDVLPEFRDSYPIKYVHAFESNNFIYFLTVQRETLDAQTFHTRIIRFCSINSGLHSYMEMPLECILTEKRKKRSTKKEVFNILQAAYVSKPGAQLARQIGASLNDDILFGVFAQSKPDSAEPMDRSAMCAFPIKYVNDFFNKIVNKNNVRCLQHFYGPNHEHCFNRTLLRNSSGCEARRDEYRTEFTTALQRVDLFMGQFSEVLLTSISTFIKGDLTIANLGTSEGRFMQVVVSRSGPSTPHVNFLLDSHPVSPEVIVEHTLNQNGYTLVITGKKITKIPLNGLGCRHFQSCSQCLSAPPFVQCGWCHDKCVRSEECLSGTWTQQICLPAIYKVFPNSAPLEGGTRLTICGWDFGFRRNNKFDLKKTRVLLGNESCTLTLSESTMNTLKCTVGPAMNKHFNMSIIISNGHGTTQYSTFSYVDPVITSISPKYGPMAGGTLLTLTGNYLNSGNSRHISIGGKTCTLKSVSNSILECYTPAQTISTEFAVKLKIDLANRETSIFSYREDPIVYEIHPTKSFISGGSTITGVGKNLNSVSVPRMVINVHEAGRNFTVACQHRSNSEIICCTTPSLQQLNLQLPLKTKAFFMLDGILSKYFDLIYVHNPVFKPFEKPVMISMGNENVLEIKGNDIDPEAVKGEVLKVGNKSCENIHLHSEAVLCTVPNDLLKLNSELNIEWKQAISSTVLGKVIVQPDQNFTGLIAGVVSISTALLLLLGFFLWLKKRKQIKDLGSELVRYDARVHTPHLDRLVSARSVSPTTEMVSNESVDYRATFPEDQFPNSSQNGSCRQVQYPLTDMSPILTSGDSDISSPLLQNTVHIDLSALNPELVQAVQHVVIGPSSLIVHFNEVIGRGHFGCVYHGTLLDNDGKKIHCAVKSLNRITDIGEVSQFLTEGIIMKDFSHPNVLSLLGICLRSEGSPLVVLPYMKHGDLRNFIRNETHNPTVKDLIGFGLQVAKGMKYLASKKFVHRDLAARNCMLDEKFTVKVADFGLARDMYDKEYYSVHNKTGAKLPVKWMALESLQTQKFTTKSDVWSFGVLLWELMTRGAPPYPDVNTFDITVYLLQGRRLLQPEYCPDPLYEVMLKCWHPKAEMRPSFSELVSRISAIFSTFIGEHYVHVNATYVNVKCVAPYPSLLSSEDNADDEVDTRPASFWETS
Kind of assay: Cellular equilibrium binding by flow cytometry. How it is done: (§9) The on-cell binding capabilities of ADCs comprising anti-cMet antibodies with either a HomoFc or HetFc backbone (v32634 and v17427, respectively) conjugated to Drug-Linker 002 by stochastic lysine conjugation at approximately DAR 4 and DAR 6 were assessed for cMet binding using SNU-5 and H292 endogenous cMet-expressing cell lines by flow cytometry as described below. Unconjugated anti-RSV antibody palivizumab (v22277) was used as a control.
(§10) Briefly, cells were seeded at 50,000 cells/well in V-bottom 96-well plates and treated with antibody for 24 hours at 4° C. to prevent internalization. Following incubation, cells were washed and stained with anti-human IgG Fc AF647 conjugate (Jackson ImmunoResearch Laboratories, Inc., West Grove, PA; Cat. No. 109-605-098) at 4° C. for 30 min. Following incubation and washing, fluorescence was detected by flow cytometry on a BD LSRFortessa™ Cell Analyzer (BD Biosciences, Franklin Lake, NJ) with 1,000 minimum events collected per well. AF647/APC-A GeoMean (fluorescence signal geometric mean, proportional to anti-Human AF647 binding) in live cell population was plotted using GraphPad Prism Version 8 (GraphPad Software, San Diego, CA).
(§11) The on-cell binding capabilities of the following unconjugated antibodies and ADCs were assessed on SNU-5 and H292 endogenous cMet-expressing cell lines by flow cytometry: unconjugated variant v17427 (HetFc, unmodified hinge), and cysteine insertion variant v29001 (two cysteine insertions), lysine conjugated ADCs comprising variant v17427 and Drug-Linker 002 at DAR 4 or DAR 6, and cysteine conjugated ADCs comprising cysteine insertion variant insertion v29001 conjugated to Drug-Linker 001, Drug-Linker 003 or Drug-Linker 004 at DAR 2, 4 or 6, respectively. […] Cellular binding was determined as described in Example 10.

For assay [8], the target named is T2, cMet on H292 endogenous cMet-expressing cell line (Homo sapiens, UniProt P08581).
T2 construct: SNU-5 and H292 endogenous cMet-expressing cell lines; endogenous in cells; host or cells: H292
T2 sequence (P08581 25-1390): as above
The assay is described as follows: Cellular equilibrium binding by flow cytometry. Here is the method:
as §9, §10, §11
For orientation: In flow cytometry, cells or beads pass a laser one at a time.

The mark [9] stands for this setting: 24 hours at 4° C., Table 10.1, read-out: Apparent Kd.
The mark [10] stands for this setting: Table 13.1, read-out: Apparent Kd.

Where two headings read alike, the source gives them in different places.

Take `CC[C@H](C)[C@@H]([C@@H](CC(=O)N1CCC[C@H]1[C@H](OC)[C@@H](C)C(=O)NS(=O)(=O)c1ccc(N)cc1)OC)N(C)C(=O)[C@@H](NC(=O)[C@H](C(C)C)N(C)C)C(C)C` [Compound 1, (S)-N-((3R,4S,5S)-1-((S)-2-((1R,2R)-3-((4-aminophenyl)sulfonamido)-1-methoxy-2-methyl-3-oxopropyl)pyrrolidin-1-yl)-3-methoxy-5-methyl-1-oxoheptan-4-yl)-2-((S)-2-(dimethylamino)-3-methylbutanamido)-N,3-dimethylbutanamide]: the EC50 worked out at 26.3 nM in assay [1] (Homo sapiens, EBC-1, 96 h); 44.4 nM in assay [1] (Homo sapiens, EBC-1, read-out: EC50 (nM) - DAR corrected); 7.42 nM with H292 (lung carcinoma) (Homo sapiens, NCI-H292, 96 h, H292, 4 days, Table 9.1); 7.42 nM in the assay with H292 (lung carcinoma) (Homo sapiens, NCI-H292, 96 h, H292, 4 days, Table 12.1); 22.2 nM in the assay on H292 (lung carcinoma) (Homo sapiens, NCI-H292, read-out: EC50 (nM) - DAR corrected, H292, 4-5 days, Table 6.1); 44.8 nM in assay [2]. The EC50 in assay [3] (Homo sapiens, SNU-5, 96 h, Table 9.1) amounted to 40 nM; in assay [3] (Homo sapiens, SNU-5, 96 h, Table 12.1), 40.1 nM; in [4] (Homo sapiens, NCI-H1975, 96 h), 22.7 nM; with BT-20 (breast cancer) (Homo sapiens, BT-20, read-out: EC50 (nM) - DAR corrected) it was 39.2 nM; with SW48 (colorectal cancer), 43.6 nM.
Turning to “V22277-MCvcPABC-MMAE DAR 4.0: palivizumab (v22277) conjugated to MCvcPABC-MMAE at DAR 4, control [reference compound]”, the concentration giving a half-maximal response (EC50) with HCC827 (lung cancer) is greater than 10 nM; in assay [5], greater than 10 nM; in assay [1] (EBC-1, 4 days, Table 8.1, read-out: EC50) it was greater than 10 nM; in the assay with H292 (lung carcinoma) (H292, 4 days, Table 8.1, read-out: EC50) it was greater than 10 nM; in assay [3] (Table 8.1, read-out: EC50), greater than 10 nM; in assay [4] (H1975, 4 days, Table 8.1, read-out: EC50) it was greater than 10 nM. In addition, in the assay with BT-20 (breast cancer) (BT-20, 4 days, Table 8.1, read-out: EC50), the EC50 was greater than 10 nM.
For telisotuzumab vedotin, the anti-tumour activity entry in [6] was “anti-tumour activity”.
Turning to “v22277: anti-RSV antibody, palivizumab, non-targeted control [reference compound]”, the “Mean Object Fluorescence (Internalized)” value in the assay with HT-29 (0.3 nM) is on record as 2,746; in the assay with HT-29 (1.9 nM), 2,363; with HT-29 (12 nM) it was 2,331; in the assay on HT-29 (70 nM), 2,290; with EBC-1 (0.3 nM), 2,686; in the assay on EBC-1 (1.9 nM), 3,054. Besides, the results for the “Mean Object Fluorescence (Internalized)” value with EBC-1 (12 nM) and in the assay on EBC-1 (70 nM) were 1,989 and 2,605, respectively. In addition, the Kd in assay [7] (setting [9]), in assay [7] (setting [10]), in [8] (setting [9]) and in assay [8] (setting [10]) was greater than 50 nM throughout.

Broadly, the EC50 is the midpoint of the concentration-response curve.

(Values after patent publication US20250222128A1, “ANTIBODY DRUG-CONJUGATES TARGETING C-MET AND METHODS OF USE THEREOF” (Zymeworks BC Inc., priority 2022, published 2025).)
